Measurements from paper PMC4384708, “Molecular imaging of angiogenesis after myocardial infarction by ^111In-DTPA-cNGR and ^99mTc-sestamibi dual-isotope myocardial SPECT” (EJNMMI Research, 2015).
Blank lines part the entries; values can stand above or below the compound they belong to.

Assays:
[1] = ^99mTc-sestamibi perfusion uptake (SUV) per AHA 17 segment, in vivo dual-isotope micro-SPECT; parameters: species or system Swiss mice
Method: MI was induced in 10- to 12-week old male Swiss mice by ligation of the left anterior descending coronary artery (LAD) (n = 7), as previously described. The angiogenesis imaging protocol was performed 7 days after the LAD ligation. A group of non-operated male Swiss mice (n = 5) was used as control. A variable number of animals were available for analysis per experiment. For SPECT scans, seven MI mice and five control mice were used while for biodistribution purposes ≥5 MI mice and ≥4 control mice were used. Furthermore, a group of six 10- to 12-week old male Swiss mice were bilaterally, subcutaneously implanted in the flanks with Matrigel (Table 1). […] All animals were held under the guidelines of the animal care facility (Maastricht University). All animal experiments were approved by the Committee for Animal Welfare of Maastricht University.
Mice were anesthetised with isoflurane (induction 2.5%; maintenance; 1.5%), a catheter was placed in the tail vein and the animals were positioned in the micro-SPECT camera (MiLabs, Utrecht, The Netherlands).
U-SPECT-II reconstruction software version 2.38 (MiLabs, Utrecht, The Netherlands) was used to reconstruct images. ^99mTc and ^111In images were reconstructed by selecting the photopeak (PP) and background (BG) windows as indicated in Figure 1.
To allow quantification of radiotracer uptake in vivo, conversion factors (CFs) were determined for the 0.6-mm collimator system in a representative phantom (20 ml) for ^99mTc and/or ^111In. During the SPECT reconstruction, the total amount of counts was distributed over the different voxels, resulting in a counts/voxel expression for the average concentration of counts. Taking into account the voxel volume (Vv), the CFs are calculated using equation (a):a ConversionfactorMBq=ActivityconcentrationMBq/ml/SPECTcountspervoxel/Vvml
The PMOD 2.95 cardiac tool PCARD (PMOD Technologies, Zürich, Switzerland) was used to segment the heart in the 17-segment model according to the American Heart Association (AHA) guidelines. For both the ^99mTc-sestamibi and ^111In-DTPA-cNGR images, the uptake was measured for each segment and expressed as mean standardised uptake value (SUVmean) using equation (b).b SUV=SPECTcountspervoxel×CF/VvMBq/ml×Bodyweightg/InjecteddoseMBq
For body weight, we assumed that 1 g of body weight equalled 1 ml.

CD13 = conditions: cNGR tripeptide vs. linear entity; cited from earlier work
Text: In this study, we designed and developed a CD13 molecular imaging probe that allowed sensitive visualisation using micro-SPECT imaging. […] Thereto, the cNGR tripeptide was conjugated with diethylene triamine pentaacetic acid (DTPA), radiolabeled with ^111In and evaluated in a mouse model of myocardial infarction in combination with ^99mTc-sestamibi in dual-isotope micro-SPECT imaging. In order to determine binding spec ...

- SUV ([1]; segment 1. Basal anterior, MI mice n = 7, 7 days after LAD ligation, mean ± S.E.M.): 1.94 ± 0.36
- SUV ([1]; segment 1. Basal anterior, healthy control mice n = 5, mean ± S.E.M.): 1.87 ± 0.34
- SUV ([1]; segment 2. Basal anteroseptal, MI mice n = 7, 7 days after LAD ligation, mean ± S.E.M.): 1.72 ± 0.33
- SUV ([1]; segment 2. Basal anteroseptal, healthy control mice n = 5, mean ± S.E.M.): 1.63 ± 0.28
- SUV ([1]; segment 3. Basal inferoseptal, MI mice n = 7, 7 days after LAD ligation, mean ± S.E.M.): 1.38 ± 0.28
- SUV ([1]; segment 3. Basal inferoseptal, healthy control mice n = 5, mean ± S.E.M.): 1.54 ± 0.29
- SUV ([1]; segment 4. Basal inferior, MI mice n = 7, 7 days after LAD ligation, mean ± S.E.M.): 1.64 ± 0.24
- SUV ([1]; segment 4. Basal inferior, healthy control mice n = 5, mean ± S.E.M.): 1.77 ± 0.28
- SUV ([1]; segment 5. Basal inferolateral, MI mice n = 7, 7 days after LAD ligation, mean ± S.E.M.): 1.78 ± 0.31
- SUV ([1]; segment 5. Basal inferolateral, healthy control mice n = 5, mean ± S.E.M.): 1.68 ± 0.30
- SUV ([1]; segment 6. Basal anterolateral, MI mice n = 7, 7 days after LAD ligation, mean ± S.E.M.): 2.11 ± 0.39
- SUV ([1]; segment 6. Basal anterolateral, healthy control mice n = 5, mean ± S.E.M.): 1.95 ± 0.33
- SUV ([1]; segment 7. Mid anterior, MI mice n = 7, 7 days after LAD ligation, mean ± S.E.M.): 1.18 ± 0.26
- SUV ([1]; segment 7. Mid anterior, healthy control mice n = 5, mean ± S.E.M.): 1.80 ± 0.30
- SUV ([1]; segment 8. Mid anteroseptal, MI mice n = 7, 7 days after LAD ligation, mean ± S.E.M.): 1.73 ± 0.27
- SUV ([1]; segment 8. Mid anteroseptal, healthy control mice n = 5, mean ± S.E.M.): 1.67 ± 0.28
- SUV ([1]; segment 9. Mid inferoseptal, MI mice n = 7, 7 days after LAD ligation, mean ± S.E.M.): 1.82 ± 0.30
- SUV ([1]; segment 9. Mid inferoseptal, healthy control mice n = 5, mean ± S.E.M.): 1.80 ± 0.34
- SUV ([1]; segment 10. Mid inferior, MI mice n = 7, 7 days after LAD ligation, mean ± S.E.M.): 1.85 ± 0.31
- SUV ([1]; segment 10. Mid inferior, healthy control mice n = 5, mean ± S.E.M.): 1.72 ± 0.28
- SUV ([1]; segment 11. Mid inferolateral, MI mice n = 7, 7 days after LAD ligation, mean ± S.E.M.): 1.60 ± 0.32
- SUV ([1]; segment 11. Mid inferolateral, healthy control mice n = 5, mean ± S.E.M.): 1.71 ± 0.25
- SUV ([1]; segment 12. Mid anterolateral, MI mice n = 7, 7 days after LAD ligation, mean ± S.E.M.): 1.15 ± 0.37
- SUV ([1]; segment 12. Mid anterolateral, healthy control mice n = 5, mean ± S.E.M.): 2.03 ± 0.32
- SUV ([1]; segment 13. Apical anterior, MI mice n = 7, 7 days after LAD ligation, mean ± S.E.M.): 0.49 ± 0.10
- SUV ([1]; segment 13. Apical anterior, healthy control mice n = 5, mean ± S.E.M.): 1.64 ± 0.30
- SUV ([1]; segment 14. Apical septal, MI mice n = 7, 7 days after LAD ligation, mean ± S.E.M.): 1.55 ± 0.25
- SUV ([1]; segment 14. Apical septal, healthy control mice n = 5, mean ± S.E.M.): 1.82 ± 0.34
- SUV ([1]; segment 15. Apical inferior, MI mice n = 7, 7 days after LAD ligation, mean ± S.E.M.): 1.36 ± 0.35
- SUV ([1]; segment 15. Apical inferior, healthy control mice n = 5, mean ± S.E.M.): 1.67 ± 0.28
- SUV ([1]; segment 16. Apical lateral, MI mice n = 7, 7 days after LAD ligation, mean ± S.E.M.): 0.64 ± 0.24
- SUV ([1]; segment 16. Apical lateral, healthy control mice n = 5, mean ± S.E.M.): 1.60 ± 0.30
- SUV ([1]; segment 17. Apex, MI mice n = 7, 7 days after LAD ligation, mean ± S.E.M.): 0.39 ± 0.17
- SUV ([1]; segment 17. Apex, healthy control mice n = 5, mean ± S.E.M.): 1.47 ± 0.34
Compound: [C-]#[N+]CC(C)(C)OC.[C-]#[N+]CC(C)(C)OC.[C-]#[N+]CC(C)(C)OC.[C-]#[N+]CC(C)(C)OC.[C-]#[N+]CC(C)(C)OC.[C-]#[N+]CC(C)(C)OC.[Tc] [^99mTc-sestamibi]

Compound: oxidised NAc-Cys-Asn-Gly-Arg-Cys-Gly-Gly-Lys-NH2 (disulfide) [cNGR, cyclic(NAc-Cys-Asn-Gly-Arg-Cys-Gly-Gly-Lys), disulfide-cyclised CD13-homing peptide]
- targeting efficacy relative to the linear entity (CD13): tenfold higher
